Measured values: PMC9841524, “Structure-Based Rational Design of Small α-Helical Peptides with Broad-Spectrum Activity against Multidrug-Resistant Pathogens” (Journal of Medicinal Chemistry, 2022)
≈ marks a conversion by molar mass, not a printed value. Where two headings read alike, the source gives them in different places. Where no end group is shown, it is not given here.

Columns and labels:
[1] = tested on: Bacillus cereus (ATCC 13061)
Method in brief: (§1)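 Inoculum 10^6 CFU/mL in CAMHB against 2-fold peptide series; salt variants used 150 mM NaCl, 4.5 mM KCl, 6 mM NH4Cl, 1 mM MgCl2, 2 mM CaCl2, or 25% FBS.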

[2] = tested on: Bacillus subtilis (ATCC 6633)
Method in brief: as §1

E. faecalis (ATCC 29212) = tested on: E. faecalis (ATCC 29212)
Method in brief: as §1

MRSA (ATCC BAA-1556) = conditions: for MIC, MRSA (ATCC BAA-1556), Control: MH media without salt ions or serum; for MIC, MRSA (ATCC BAA-1556), Control / MIC, MRSA (ATCC BAA-1556), MgCl2 / MIC, MRSA (ATCC BAA-1556), CaCl2 / MIC, MRSA (ATCC BAA-1556), KCl / MIC, MRSA (ATCC BAA-1556), NH4Cl / MIC, MRSA (ATCC BAA-1556), NaCl / MIC, MRSA (ATCC BAA-1556), FBS (25%): three independent experiments in triplicate; for MIC, MRSA (ATCC BAA-1556): broth microdilution (CLSI), CAMHB, 37 °C, 24 h; for MIC, MRSA (ATCC BAA-1556), MgCl2: media with 1 mM MgCl2; for MIC, MRSA (ATCC BAA-1556), CaCl2: media with 2 mM CaCl2; for MIC, MRSA (ATCC BAA-1556), KCl: media with 4.5 mM KCl; for MIC, MRSA (ATCC BAA-1556), NH4Cl: media with 6 mM NH4Cl; for MIC, MRSA (ATCC BAA-1556), NaCl: media with 150 mM NaCl; for MIC, MRSA (ATCC BAA-1556), FBS (25%): media with 25% fetal bovine serum
Method in brief: as §1

[3] = tested on: S. pneumoniae (ATCC 700677); conditions: Gram-positive, multi-drug resistant (penicillin, tetracycline, erythromycin); CAMHB + 2.5% lysed horse blood, 37 °C, 24 h; highest MIC of three independent experiments in triplicate
Method in brief: as §1

E. coli (ATCC 25922) = conditions: for MIC, E. coli (ATCC 25922): broth microdilution (CLSI), CAMHB, 37 °C, 24 h; for MIC, E. coli (ATCC 25922), KCl: media with 4.5 mM KCl; for MIC, E. coli (ATCC 25922), NH4Cl: media with 6 mM NH4Cl
Method in brief: as §1

E. coli (ATCC BAA-2452) = conditions: Gram-negative, NDM-1; CLSI microdilution, CAMHB, 37 °C, 24 h; highest MIC of three independent experiments in triplicate
Method in brief: as §1

[4] = tested on: K. pneumonia (ATCC BAA-2470); conditions: Gram-negative, carbapenem-resistant; CLSI microdilution, CAMHB, 37 °C, 24 h; highest MIC of three independent experiments in triplicate
Method in brief: as §1

[5] = tested on: Klebsiella pneumonia (ATCC 13883)
Method in brief: as §1

[6] = tested on: P. aeruginosa (ATCC 10145)
Method in brief: as §1

[7] = tested on: P. aeruginosa (ATCC BAA-1744); conditions: Gram-negative, resistant strain (marked a; imipenem resistant in Table S3); CLSI microdilution, CAMHB, 37 °C, 24 h; highest MIC of three independent experiments in triplicate
Method in brief: as §1

[8] = CD spectroscopy, helicity; type: physicochemical; parameters: key to Δ[θ]222 induced by TFE / Δ[θ]222 induced by Liposomes: mean residue molar ellipticity, mdeg cm2/(dmol × res); conditions: for [θ]222 mean residue molar ellipticity, TFE / [θ]222 mean residue molar ellipticity, Liposomes / [θ]222 mean residue molar ellipticity, PBS: CD at 222 nm, 25 °C; for [θ]222 mean residue molar ellipticity, TFE: aqueous buffer containing 50% TFE; for [θ]222 mean residue molar ellipticity, Liposomes / Δ[θ]222 induced by Liposomes: bacterial membrane mimicking liposomes; for [θ]222 mean residue molar ellipticity, Liposomes: peptide:lipid molar ratio 1:1.05; for [θ]222 mean residue molar ellipticity, PBS: phosphate buffer saline pH 7.0; for Δ[θ]222 induced by TFE / Δ[θ]222 induced by Liposomes: difference to PBS; for Δ[θ]222 induced by TFE: 50% TFE; for % of helicity induced by TFE: increase in molar ellipticity at 222 nm in the presence of 50% TFE; for % of helicity induced by Liposomes: increase in molar ellipticity at 222 nm in the presence of liposomes;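 on % of helicity induced by Liposomes: share of the total helicity with liposomes gained over the same peptide in PBS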;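 on % of helicity induced by TFE: share of the total helicity in TFE gained over the same peptide in PBS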
Method in brief: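 Ellipticity at 222 nm, converted to mean residue molar ellipticity, was measured at 25 °C (three-scan average, 190–260 nm, 1 mm path) in phosphate buffer pH 7.2, 50% TFE, or liposomes at 75 μM lipid, after blank subtraction. Induced helicity is the percent rise at 222 nm versus buffer.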

[9] = Gram-positive, CLSI microdilution, CAMHB, 37 °C, 24 h, highest MIC of three independent experiments in triplicate
[10] = 10^6 CFU/mL, highest MIC of three independent experiments in triplicate
[11] = three independent experiments in triplicate
[12] = Gram-negative, CLSI microdilution, CAMHB, 37 °C, 24 h, highest MIC of three independent experiments in triplicate

Molecule | MIC, Bacillus cereus (ATCC 13061) [1, 9] | MIC, E. faecalis (ATCC 29212) (E. faecalis (ATCC 29212); [9]) | MIC, MRSA (ATCC BAA-1556), Control (MRSA (ATCC BAA-1556)) | MIC, MRSA (ATCC BAA-1556) (MRSA (ATCC BAA-1556); [10]) | MIC, MRSA (ATCC BAA-1556), MgCl2 (MRSA (ATCC BAA-1556)) | MIC, MRSA (ATCC BAA-1556), CaCl2 (MRSA (ATCC BAA-1556)) | MIC, MRSA (ATCC BAA-1556), KCl (MRSA (ATCC BAA-1556)) | MIC, MRSA (ATCC BAA-1556), NH4Cl (MRSA (ATCC BAA-1556)) | MIC, MRSA (ATCC BAA-1556), NaCl (MRSA (ATCC BAA-1556)) | MIC, MRSA (ATCC BAA-1556), FBS (25%) (MRSA (ATCC BAA-1556)) | MIC, MRSA (ATCC BAA-1556) (MRSA (ATCC BAA-1556); value in parentheses (μM)) | MIC, S. pneumoniae (ATCC 700677) [3] | MIC, Bacillus subtilis (ATCC 6633) ([2]; ATCC 6633, 24 h) | MIC, E. coli (ATCC 25922), FBS (25%) (E. coli (ATCC 25922); ATCC 25922, 24 h) | MIC, E. coli (ATCC 25922), NaCl (E. coli (ATCC 25922); ATCC 25922, 24 h) | MIC, E. coli (ATCC 25922) (E. coli (ATCC 25922); [10]) | MIC, E. coli (ATCC 25922), KCl (E. coli (ATCC 25922); [11]) | MIC, E. coli (ATCC 25922), NH4Cl (E. coli (ATCC 25922); [11]) | MIC, E. coli (ATCC 25922) (E. coli (ATCC 25922); value in parentheses (μM)) | MIC, E. coli (ATCC BAA-2452) (E. coli (ATCC BAA-2452)) | other results
CCCCCCCCCC(=O)N[C@@H](Cc1c[nH]c2ccccc12)C(=O)N[C@H](CC(N)=O)C(=O)N[C@@H](CC(=O)O)C(=O)N[C@@H]1C(=O)NCC(=O)N[C@@H](CCCN)C(=O)N[C@@H](CC(=O)O)C(=O)N[C@H](C)C(=O)N[C@@H](CC(=O)O)C(=O)NCC(=O)N[C@H](CO)C(=O)N[C@@H]([C@H](C)CC(=O)O)C(=O)N[C@@H](CC(=O)c2ccccc2N)C(=O)O[C@@H]1C [daptomycin, reference compound] | 1.5 µg/mL | 6.2 µg/mL | 1.5 µg/mL | 1.5 µg/mL | 3.1 µg/mL (≈ 1.91 µM) | 3.1 µg/mL (≈ 1.91 µM) | 1.5 µg/mL (≈ 0.926 µM) | 1.5 µg/mL (≈ 0.926 µM) | 1.5 µg/mL (≈ 0.926 µM) | 3.1 µg/mL (≈ 1.91 µM) | 0.86 µM | 12.5 µg/mL | – | – | – | – | – | – | – | – | MIC, Bacillus subtilis (ATCC 6633) [2, 9]: 0.7 µg/mL
KWLKKWLKWWKK-NH2 [8b] | – | – | 3.1 µg/mL | 3.1 µg/mL | 6.2 µg/mL | 6.2 µg/mL | 6.2 µg/mL | 6.2 µg/mL | 12.5 µg/mL | 12.5 µg/mL | 1.76 µM | 12.5 µg/mL | 3.1 µg/mL | 25 µg/mL | 25 µg/mL | 6.2 µg/mL | 12.5 µg/mL | 12.5 µg/mL | 3.53 µM | 6.2 µg/mL | MIC, Bacillus cereus (ATCC 13061) ([1]; ATCC 13061, 24 h): 3.1 µg/mL; MIC, E. coli (ATCC 25922), CaCl2 (E. coli (ATCC 25922); ATCC 25922, 24 h): 25 µg/mL; MIC, E. coli (ATCC 25922), Control (E. coli (ATCC 25922); ATCC 25922, 24 h): 6.2 µg/mL; MIC, E. coli (ATCC 25922), MgCl2 (E. coli (ATCC 25922); ATCC 25922, 24 h): 25 µg/mL; MIC, E. faecalis (ATCC 29212) (E. faecalis (ATCC 29212); ATCC 29212, 24 h): 6.2 µg/mL; MIC, K. pneumonia (ATCC BAA-2470) [4]: 12.5 µg/mL; MIC, Klebsiella pneumonia (ATCC 13883) [5, 12]: 12.5 µg/mL; MIC, P. aeruginosa (ATCC 10145) ([6]; ATCC 10145, 24 h): 6.2 µg/mL; MIC, P. aeruginosa (ATCC BAA-1744) [7]: 6.2 µg/mL; [θ]222 mean residue molar ellipticity, TFE [8]: -15887 mdeg cm2/(dmol × res); [θ]222 mean residue molar ellipticity, Liposomes [8]: -19313 mdeg cm2/(dmol × res); [θ]222 mean residue molar ellipticity, PBS [8]: -6387 mdeg cm2/(dmol × res); Δ[θ]222 induced by TFE [8]: -9499; Δ[θ]222 induced by Liposomes [8]: -12926; % of helicity induced by TFE [8]: 59.79%; % of helicity induced by Liposomes [8]: 66.92%
RWIRRWIRWWRR-NH2 [7a] | 12.5 µg/mL | 12.5 µg/mL | 6.2 µg/mL | 6.2 µg/mL | 6.2 µg/mL | 6.2 µg/mL | 12.5 µg/mL | 6.2 µg/mL | 12.5 µg/mL | 25 µg/mL | 3.22 µM | 25 µg/mL | 6.2 µg/mL | 50 µg/mL | 25 µg/mL | 6.2 µg/mL | 12.5 µg/mL | 12.5 µg/mL | 3.22 µM | 12.5 µg/mL | MIC, E. coli (ATCC 25922), Control (E. coli (ATCC 25922); MH media without salt ions or serum, three independent experiments in triplicate): 6.2 µg/mL; MIC, E. coli (ATCC 25922), MgCl2 (E. coli (ATCC 25922); media with 1 mM MgCl2, three independent experiments in triplicate): 12.5 µg/mL; MIC, E. coli (ATCC 25922), CaCl2 (E. coli (ATCC 25922); media with 2 mM CaCl2, three independent experiments in triplicate): 12.5 µg/mL; MIC, K. pneumonia (ATCC BAA-2470) [4]: 12.5 µg/mL; MIC, Klebsiella pneumonia (ATCC 13883) ([5]; ATCC 13883, 24 h): 25 µg/mL; MIC, P. aeruginosa (ATCC 10145) [6, 12]: 12.5 µg/mL; MIC, P. aeruginosa (ATCC BAA-1744) [7]: 12.5 µg/mL; [θ]222 mean residue molar ellipticity, TFE [8]: -8205 mdeg cm2/(dmol × res); [θ]222 mean residue molar ellipticity, Liposomes [8]: -11307 mdeg cm2/(dmol × res); [θ]222 mean residue molar ellipticity, PBS [8]: -2471 mdeg cm2/(dmol × res); Δ[θ]222 induced by TFE [8]: -5734; Δ[θ]222 induced by Liposomes [8]: -8836; % of helicity induced by TFE [8]: 69.88%; % of helicity induced by Liposomes [8]: 78.14%
